Several values for one entry are separate records, joined by “and”; a condition that tells them apart may be missing. Identical values can stand only once. Entries after “also recorded” stand apart in the source; their conditions may differ.
Key:
[1] = Dose escalation to MTD, DLT and grade 3/4 toxicities of oral irinotecan semi-solid matrix capsules in patients with solid tumors; format: in vivo, human; conditions: for DLT (kind and grade) / Pts with DLT: first cycle
Protocol: Patients were treated as in Table 3. […]
Oral irinotecan can be formulated as follows.
The patients received starting doses of 50 (n=7), 60 (n=32), or 70 (n=4) mg/m^2/d. […] See also Tables 6 and 7.

[2] = clinical; conditions: for AUC(0-inf): 60 mg/m2, AUC0-inf; for Cmax: 60 mg/m2, Cmax
Protocol: (§1) The protocol had two stages, Stage A directed to dose escalation and Stage B directed to pharmacokinetics and bioavailability measurement. Patients were treated as in Table 3. […] MTD is defined as the dose level below which 2/3 or preferably 2/6 patients experience DLT.
(§2) In addition, evidence of antitumor activity can be evaluated.

[3] = test system: solid tumors; assay: Best overall tumor response in patients treated with oral irinotecan; format: in vivo, human; conditions: oral irinotecan daily x5 q 3 weeks
Protocol: as §1, §2

[4] = clinical; conditions: human
[5] = Comparison of exposure over 6-week period, oral vs IV irinotecan
[6] = All Cycles, 60 mg/m^2/day, N=32
[7] = plasma, irinotecan 60 mg/m^2 IV, N=14
[8] = plasma, irinotecan 60 mg/m^2 PO, N=14
[9] = IV Irinotecan, weekly x 4 q 6 weeks x 1 cycle, N=99

Compound: CCc1c2c(nc3ccc(OC(=O)N4CCC(N5CCCCC5)CC4)cc13)-c1cc3c(c(=O)n1C2)COC(=O)[C@]3(O)CC [irinotecan, 7-ethyl-10-[4-(1-piperidino)-1-piperidino]-carbonyloxycamptothecin]
- Grade 3 and 4 Diarrhea ([1]; All Cycles, 50 mg/m^2/day, N=7): 14%
- Grade 3 and 4 Nausea ([1]; All Cycles, 50 mg/m^2/day, N=7): 14%
- Grade 3 and 4 Diarrhea [1, 6]: 16%
- Grade 3 and 4 Nausea [1, 6]: 9%
- Grade 3 and 4 Neutropenia [1, 6]: 9%
- Grade 3 and 4 Neutropenic Fever [1, 6]: 3%
- Grade 3 and 4 Vomiting [1, 6]: 12%
- Grade 3 and 4 Diarrhea ([1]; All Cycles, 70 mg/m^2/day, N=4): 50%
- Grade 3 and 4 Nausea ([1]; All Cycles, 70 mg/m^2/day, N=4): 3%
- Grade 3 and 4 Neutropenia ([1]; All Cycles, 70 mg/m^2/day, N=4): 25%
- Grade 3 and 4 Neutropenic Fever ([1]; All Cycles, 70 mg/m^2/day, N=4): 25%
- Grade 3 and 4 Vomiting ([1]; All Cycles, 70 mg/m^2/day, N=4): 3%
- Grade 3 and 4 Diarrhea ([1]; Cycle 1, 50 mg/m^2/day, N=7): 14%
- Grade 3 and 4 Nausea ([1]; Cycle 1, 50 mg/m^2/day, N=7): 14%
- Grade 3 and 4 Diarrhea ([1]; Cycle 1, 60 mg/m^2/day, N=32): 13%
- Grade 3 and 4 Nausea ([1]; Cycle 1, 60 mg/m^2/day, N=32): 6%
- Grade 3 and 4 Neutropenia ([1]; Cycle 1, 60 mg/m^2/day, N=32): 3%
- Grade 3 and 4 Vomiting ([1]; Cycle 1, 60 mg/m^2/day, N=32): 9%
- Grade 3 and 4 Diarrhea ([1]; Cycle 1, 70 mg/m^2/day, N=4): 50%
- Grade 3 and 4 Neutropenia ([1]; Cycle 1, 70 mg/m^2/day, N=4): 25%
- Grade 3 and 4 Neutropenic Fever ([1]; Cycle 1, 70 mg/m^2/day, N=4): 25%
- recommended phase 11 dose ([1]; SSM oral irinotecan, for 5 days every 3 wks): 60 mg/m^2/daily
- DLT (kind and grade) ([1]; Stage A, 50 mg/m^2/day oral): G3 diarrhea, G3 nausea, G3 dehydration; also recorded: Gr. 3 Nausea; also recorded: Gr. 3 Diarrhea; also recorded: Gr. 3 Dehydration
- Pts with DLT ([1]; Stage A, 50 mg/m^2/day oral, 7 evaluable): 1/7 and 1
- DLT (kind and grade) ([1]; Stage A, 60 mg/m^2/day oral): None
- Pts with DLT ([1]; Stage A, 60 mg/m^2/day oral, 8 evaluable): 0/8 and 0
- DLT (kind and grade) ([1]; Stage A, 70 mg/m^2/day oral): G3 diarrhea, G4 ANC [absolute neutrophil counts]; G4 diarrhea, fever, dehydration, fatigue; also recorded: Pt 1: gr. 3 Diarrhea,; also recorded: Pt 2: gr. 4 Diarrhea,; also recorded: gr. 4 Dehydration
- Pts with DLT ([1]; Stage A, 70 mg/m^2/day oral, 4 evaluable): 2/4 and 2
- DLT (kind and grade) ([1]; Stage B, 60 mg/m^2/day oral): Pt 1: Gr. 3 Diarrhea; also recorded: Pt 2: Gr. 3 Dehydration; also recorded: Pt 7: Gr. 3 Diarrhea
- Pts with DLT ([1]; Stage B, 60 mg/m^2/day oral, 24 evaluable): 7
- MTD ([1]; oral, encapsulated semi-solid matrix, daily x5 q 3 weeks): 60 mg/m^2/day
- bioavailability ([2]; human, in vivo, Absolute bioavailabiity of irinotecan, Mean ± SD): 24 ± 23%
- bioavailability ([2]; human, in vivo, Absolute bioavailabiity of irinotecan, Median): 15.4%
- bioavailability ([2]; human, in vivo, Absolute bioavailabiity of irinotecan, range): 7.1 to 96%
- Tmax ([2]; human, in vivo, iv, 60 mg/m2): End of 1.5-h
- AUC(0-inf) ([2]; human, in vivo, iv, mean ± SD): 3020 ± 830 ng·h/mL
- AUC(0-inf) ([2]; human, in vivo, iv, median): 2610 ng·h/mL
- AUC(0-inf) ([2]; human, in vivo, iv, range): 1720 to 4790 ng·h/mL
- Cmax ([2]; human, in vivo, iv, mean ± SD): 627 ± 142 ng/mL
- Cmax ([2]; human, in vivo, iv, median): 593 ng/mL
- Cmax ([2]; human, in vivo, iv, range): 416 to 897 ng/mL
- tmax, mean ± SD ([2]; human, in vivo, po, 60 mg/m2): 3.15 ± 2.00 h
- AUC(0-inf) ([2]; human, in vivo, po, mean ± SD): 732 ± 665 ng·h/mL
- AUC(0-inf) ([2]; human, in vivo, po, median): 619 ng·h/mL
- AUC(0-inf) ([2]; human, in vivo, po, range): 167 to 2500 ng·h/mL
- Cmax ([2]; human, in vivo, po, mean ± SD): 73.1 ± 67.6 ng/mL
- Cmax ([2]; human, in vivo, po, median, plasma, irinotecan 60 mg/m^2 PO, N=14): 60.1 ng/mL
- Cmax ([2]; human, in vivo, po, range, plasma, irinotecan 60 mg/m^2 PO, N=14): 9.49 to 274 ng/mL
- Tmax ([2]; human, in vivo, po, 60 mg/m2, tmax, mean ± SD): 3 ± 2.2 h
- Tmax ([2]; human, in vivo, po, 60 mg/m2, tmax, range): 1 to 10 h
- bioavailability ([2]; human, in vivo, po, absolute bioavailability (mean±SD)): 25 ± 23%
- best overall tumor response: partial responses ([3]; esophageal and small cell lung cancer): Two confirmed partial responses
- best overall tumor response: stable disease cases ([3]; variety of tumor types): thirteen stable disease cases
- AUC(0-inf) ([4]; in vivo, iv): 42000 ng·h/mL
- Cmax ([4]; in vivo, iv): 1500 ng/mL
- AUC(0-inf) ([4]; plasma, po, 60 mg/m^2/daily): 7320 ng·h/mL
- Cmax ([4]; plasma, po, 60 mg/m^2/daily): 73.1 ng/mL

Compound: CCc1c2c(nc3ccc(O)cc13)-c1cc3c(c(=O)n1C2)COC(=O)[C@]3(O)CC [SN-38, 7-ethyl-10-hydroxycamptothecin]
- AUC0-inf, mean ± SD ([2]; irinotecan 60 mg/m^2 IV, N=14): 167 ± 77.8 ng·h/mL
- AUC0-inf, median ([2]; irinotecan 60 mg/m^2 IV, N=14): 169 ng·h/mL
- AUC0-inf, range ([2]; irinotecan 60 mg/m^2 IV, N=14): 55.1 to 358 ng·h/mL
- t1/2, mean ± SD ([2]; irinotecan 60 mg/m^2 IV, N=14): 22.95 ± 19.41 h
- t1/2, median ([2]; irinotecan 60 mg/m^2 IV, N=14): 19.31 h
- t1/2, range ([2]; irinotecan 60 mg/m^2 IV, N=14): 8.63 to 94.9 h
- tmax, median ([2]; irinotecan 60 mg/m^2 IV, N=14): 0.5 h
- tmax, range ([2]; irinotecan 60 mg/m^2 IV, N=14): 0 to 2.0 h
- tmax, mean ± SD ([2]; irinotecan 60 mg/m^2 IV, N=14, measured from start of 1.5-h infusion): 2.18 ± 1.99^2 h
- PO/IV SN-38 AUC Ratio, Mean ± SD ([2]; irinotecan 60 mg/m^2 PO vs IV): 0.504±0.195
- PO/IV SN-38 AUC Ratio, Median ([2]; irinotecan 60 mg/m^2 PO vs IV): 0.447
- PO/IV SN-38 AUC Ratio, range ([2]; irinotecan 60 mg/m^2 PO vs IV): 0.257-0.945
- AUC0-inf, mean ± SD ([2]; irinotecan 60 mg/m^2 PO, N=14): 84.1 ± 54.7 ng·h/mL
- AUC0-inf, median ([2]; irinotecan 60 mg/m^2 PO, N=14): 70.7 ng·h/mL
- AUC0-inf, range ([2]; irinotecan 60 mg/m^2 PO, N=14): 22.8 to 223.6 ng·h/mL
- t1/2, mean ± SD ([2]; irinotecan 60 mg/m^2 PO, N=14): 14.2 ± 5.87 h
- t1/2, median ([2]; irinotecan 60 mg/m^2 PO, N=14): 13.4 h
- t1/2, range ([2]; irinotecan 60 mg/m^2 PO, N=14): 4.7 to 25.7 h
- tmax, mean ± SD ([2]; irinotecan 60 mg/m^2 PO, N=14): 2.97 ± 2.21 h
- tmax, median ([2]; irinotecan 60 mg/m^2 PO, N=14): 2 h
- tmax, range ([2]; irinotecan 60 mg/m^2 PO, N=14): 1.0 to 10.0 h
- AUC of SN-38 following oral irinotecan as % of the value from an equivalent IV dose (mean±SD) ([2]; oral vs equivalent IV dose of irinotecan): 50±20%
- Cmax, mean ± SD [2, 7]: 15.94 ± 7.83 ng/mL
- Cmax, median [2, 7]: 13.8 ng/mL
- Cmax, range [2, 7]: 7.26 to 36.9 ng/mL
- Cmax, mean ± SD [2, 8]: 7.17 ± 3.90 ng/mL
- Cmax, median [2, 8]: 3.91 ng/mL
- Cmax, range [2, 8]: 1.31 to 14.8 ng/mL
- AUC0-inf, exposure over 6-week period [5, 9]: 1,068 ng h/ml
- Cmax [5, 9]: 28 ng/mL
- Cmax ([5]; Oral Irinotecan, daily x 5 q 3 weeks x 2 cycles, N=14): 7.2 ng/mL
